Where two headings read alike, the source gives them in different places.
Key:
[1] = in vivo; cited from earlier work
[2] = intravenously injected aqueous solutions; tests with animals; cited from earlier work
[3] = Bioavailability and release of N-0923 from the depot composition per the invention; assay type: in vivo
Text: The composition according to the invention is particularly preferred for the administration of N-0923 hydrochloride, and especially so in a formulation with crystalline N-0923 hydrochloride. The latter can be produced for instance as described in U.S. Pat. No. 4,564,628.

[4] = subcutaneous administration; tests with animals; cited from earlier work
[5] = distinct first-pass effect; cited from earlier work
[6] = cited from earlier work
[7] = in vivo; cited from earlier work; remark: listed apart in the source

With `O=c1[nH]cc(F)c(=O)[nH]1` [5-fluorouracil] as the compound, how does the half-time value [1] read?
Its half-time value is 10 to 20 min.

What does the source list for `CCCN(CCc1cccs1)[C@H]1CCc2c(O)cccc2C1` [N-0923, S(−)-2-(N-propyl-N-2-thienylerhyl-amino)-5-hyroxytetralin]?
half-time value [2]: 52 min; relationship of plasma agent levels to the dose introduced in the body ([3]; depot composition): linear relationship; time over which the active agent is released from the depots in the body in a therapeutically effective amount ([3]; depot composition): over 48 hours; bioavailability ([3]; plasma, depot composition with N-0923, read-out: bioavailability of the pharmaceutical composition per the invention): ~70%; half-time value [4]: 60 to 70 min; bioavailability after oral administration [5]: about 0.5%

With `N[C@@H](Cc1ccc(O)c(O)c1)C(=O)O` [levodopa] as the compound, how does the “half-time in the plasma” value [6] read?
The value was 1 to 3 h.

Which half-time value [7] does the source give for proinsulin C-peptide here?
Its half-time value is “about 30 minutes”.

From patent US7309497B2, “Injectable pharmaceutical composition for systematic administration of pharmacologically active ingredients” (Schwarz Pharma AG, priority 2000, dated 2007)
